{"source": "PubChem BioAssay AID1949", "about": "(Southern Research Institute, 2009)", "note": "Results filed as inconclusive are left out. Active and inactive are the calls of the source. How the calls were made is not given here."}
{"test_system": "M. tuberculosis H37Rv growth inhibition", "assay": "Confirmatory growth inhibition assay against Mycobacterium tuberculosis H37Rv, potency (AID 1949);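 further: bacteria grown 7 days with compound before Alamar blue readout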"}
{"compound": "CCOC(=O)COc1ccc(OCc2ccccc2)cc1", "IC50": "1.21 µg/mL"}
{"compound": "CC(Sc1nnc(N)s1)C(=O)Nc1nc2c(s1)CCCC2", "note": "(stereo not given)", "IC50": "0.75 µg/mL"}
{"compound": "O=C(Nc1cccc(Br)c1)c1ccc(-c2ccc(Cl)cc2)o1", "IC50": "1.39 µg/mL"}
{"compound": "CCOC(=O)C1CCCN(c2ncnc3c2cnn3-c2ccc(Cl)cc2)C1", "note": "(stereo not given)", "IC50": "4.21 µg/mL"}
{"compound": "CC(C)(C)c1ccc(C(=O)Nc2nc3ccccc3[nH]2)cc1", "IC50": "< 0.1 µg/mL"}
{"compound": "Cc1nn(-c2nc3ccccc3[nH]2)c(N)c1-c1ccccc1", "IC50": "0.43 µg/mL"}
{"compound": "CCCC(=O)NC(=S)Nc1ccc(N2CCN(C(=O)c3cccs3)CC2)c(Cl)c1", "IC50": "0.61 µg/mL"}
{"compound": "CCN(CC)c1cccc(Oc2nc([N+](=O)[O-])nn2C)c1", "IC50": "1.81 µg/mL"}
{"compound": "Clc1ccc(-c2nnc(SCc3ccon3)o2)c(Cl)c1", "IC50": "0.79 µg/mL"}
{"compound": "COc1ccc(F)cc1CN1CCN(c2ncnc3scc(-c4ccc(F)cc4)c23)CC1", "IC50": "> 50 µg/mL (inactive)"}
{"compound": "CCCOc1ccc(C(=O)NC(=S)Nc2ccc(C(=O)O)cc2)cc1", "IC50": "0.12 µg/mL"}
{"compound": "COc1ccc(-c2cc(-c3ccccc3)nc(-n3nc(C)cc3C)n2)cc1", "IC50": "4.22 µg/mL"}
{"compound": "CCOC(=O)c1ccc(NC(=S)Nc2ccc(F)c(Cl)c2)cc1", "IC50": "0.28 µg/mL"}
{"compound": "COc1cccc(NC(=O)Nc2ccc(C(F)(F)F)cc2)c1", "IC50": "5.23 µg/mL"}
{"compound": "O=C(OCc1ccc(S(=O)(=O)c2ccccc2)cc1)c1ccccc1Br", "IC50": "8.37 µg/mL"}
{"compound": "COC(=O)COc1ccc2c(=O)c(Oc3ccccc3OC)c(C)oc2c1", "IC50": "1.39 µg/mL"}
{"compound": "COc1ccccc1/C=C/c1nn2c(-c3ccc(C)cc3)nnc2s1", "IC50": "45.6 µg/mL"}
{"compound": "O=C(c1ccc(NC(=O)C2(c3ccccc3)CCCC2)cc1)N1CCCCC1", "IC50": "1.24 µg/mL"}
{"compound": "Cc1ccn2c(-c3csc(Nc4ccccn4)n3)c(C)nc2c1", "IC50": "0.24 µg/mL"}
{"compound": "COC(=O)COc1ccc(NC(=O)c2ccccc2I)cc1", "IC50": "0.62 µg/mL"}
{"compound": "O=C(CN1CCN(Cc2ccccc2)CC1)Nc1ccc([N+](=O)[O-])cc1C(=O)c1ccccc1", "IC50": "2.78 µg/mL"}
{"compound": "Fc1cc(Br)cc2c1NC(c1cccnc1)C1CC=CC21", "note": "(stereo not given)", "IC50": "> 50 µg/mL (inactive)"}
{"compound": "CC(C)(C)c1ccc(C(=O)Nc2nccs2)cc1Br", "IC50": "0.37 µg/mL"}
{"compound": "CN(C)CC1CC(C(C)(C)C)CCC1=O", "note": "(stereo not given)", "IC50": "2.45 µg/mL"}
{"compound": "CCOc1ccc(Nc2nc(-c3sc(C)nc3C)cs2)cc1", "IC50": "3.38 µg/mL"}
{"compound": "CC1=NN(C(=O)c2ccccc2)C(O)(c2ccncc2)C1", "note": "(stereo not given)", "IC50": "< 0.1 µg/mL"}
{"compound": "CC1=CC(C)(C)N2C(=O)C3(Nc4ccccc4S3)c3cc(C)cc1c32", "note": "(stereo not given)", "IC50": "16.9 µg/mL"}
{"compound": "Cc1nc(N2CCN(Cc3ccc4c(c3)OCO4)CC2)nc2c1C(=O)CC(c1ccco1)C2", "note": "(stereo not given)", "IC50": "5.06 µg/mL"}
{"compound": "CCn1c2ccccc2c2cc(CN3CCC(N4CCN(c5ccccc5)CC4)CC3)ccc21", "IC50": "1.45 µg/mL"}
{"compound": "c1ccc(Nc2nc(Nc3ccccc3)nc(N3CCNCC3)n2)cc1", "IC50": "3.99 µg/mL"}
{"compound": "Cc1ccc(OCC(=O)c2ccc(Cl)cc2)cc1C", "IC50": "17.6 µg/mL"}
{"compound": "Cc1ccc(Cl)cc1NC(=O)CC(O)(C(F)(F)F)C(F)(F)F", "IC50": "7.04 µg/mL"}
{"compound": "CCN(CC)CCNc1nc(-c2cccc(Cl)c2)nc2ccccc12", "IC50": "46 µg/mL"}
{"compound": "CSc1nc(C)cc(OCC(=O)Nc2ccc(Cl)cc2)n1", "IC50": "6.69 µg/mL"}
{"compound": "O=C(Nc1nccs1)c1cc(Cl)cc(Cl)c1", "IC50": "10.2 µg/mL"}
{"compound": "CC(C)OC(=O)COc1ccc2c(=O)c(Oc3ccccc3Br)coc2c1", "IC50": "13.9 µg/mL"}
{"compound": "O=C(Oc1cccc2cccnc12)C(Cc1ccccc1)N1C(=O)C2C3CCC(C3)C2C1=O", "note": "(stereo not given)", "IC50": "2.76 µg/mL"}
{"compound": "Cc1ccc(-n2c(=O)oc3ccc(Cl)cc3c2=O)cc1", "IC50": "> 50 µg/mL (inactive)"}
{"compound": "CCOc1ccc(NCCC(=O)c2cccs2)cc1", "IC50": "0.86 µg/mL"}
{"compound": "CC1CCN(c2cc(/C=C(\\C#N)c3nn(-c4ccccc4)c(N)c3C#N)c3ccccc3n2)CC1", "IC50": "> 50 µg/mL (inactive)"}
{"compound": "Cc1ccc(Cn2cnc3sc4c(c3c2=O)CCCC4)cc1", "IC50": "8.41 µg/mL"}
{"compound": "CCN(c1ccccc1)c1ccc([N+](=O)[O-])c2nonc12", "IC50": "0.17 µg/mL"}
{"compound": "O=C(Nc1ccc(C(F)(F)F)cc1)Nc1cccc(Cl)c1", "IC50": "0.2 µg/mL"}
{"compound": "COC(=O)COc1ccc2c(-c3ccc(OC)cc3)cc(=O)oc2c1", "IC50": "0.86 µg/mL"}
{"compound": "O=S1(=O)C=CC2ON=C(c3ccc(Cl)cc3)C21", "note": "(stereo not given)", "IC50": "1.11 µg/mL"}
{"compound": "O=S1(=O)C=C(Sc2nnc(-c3ccccc3)o2)c2ccccc21", "IC50": "0.31 µg/mL"}
{"compound": "COc1ccc(OCC(=O)N=Nc2c(O)[nH]c3c(Br)cc(C)cc23)c(Br)c1", "IC50": "16.7 µg/mL"}
{"compound": "COc1ccc2c(c1)CC1=C2CCC2(C)C1=CCC2OC(C)=O", "note": "(stereo not given)", "IC50": "21.6 µg/mL"}
{"compound": "O=C(c1ccccc1)c1ccc(OCC(O)Cn2cnc3ccccc32)cc1", "note": "(stereo not given)", "IC50": "1.51 µg/mL"}
{"compound": "CCOc1ccc(OCc2ccc(C(=O)Nc3cccc(C)n3)o2)cc1", "IC50": "7.11 µg/mL"}
{"compound": "Cc1cc(Nc2ccc(Cl)cc2)nc(NCc2ccccc2)n1", "IC50": "1.34 µg/mL"}
{"compound": "Cc1ccc(-c2csc3ncn(C(C)C(=O)OCc4ccccc4Cl)c(=O)c23)cc1", "note": "(stereo not given)", "IC50": "0.74 µg/mL"}
{"compound": "COc1ccc2nc(/C(C#N)=C\\c3ccc(SC)cc3)[nH]c2c1", "IC50": "7.56 µg/mL"}
{"compound": "O=C(/C=C/c1cccs1)N1CCN(Cc2ccc3c(c2)OCO3)CC1", "IC50": "< 0.1 µg/mL"}
{"compound": "c1ccc(COc2ccc(OCCn3ccnc3)cc2)cc1", "IC50": "10.4 µg/mL"}
{"compound": "C=CCn1c(NCc2cccc3ccccc23)nc2ccccc21", "IC50": "3.16 µg/mL"}
{"compound": "CN(C)CCSc1nc(-c2cccs2)cc(-c2ccc(F)cc2)c1C#N", "IC50": "5.23 µg/mL"}
{"compound": "O=C(CCNc1ccc(Cc2ccncc2)cc1)c1cccs1", "IC50": "5.83 µg/mL"}
{"compound": "O=C(CCNc1ccc(Cl)c(C(F)(F)F)c1)c1cccs1", "IC50": "3.17 µg/mL"}
{"compound": "CCOc1ccc(C(=O)NC(=S)Nc2ccc(N3CCN(C)CC3)c(Cl)c2)cc1Cl", "IC50": "> 50 µg/mL (inactive)"}
